Test results from patent publication US11634447B2 (priority 2012, dated 2023).

test system: bacterial strain LF82 binding to the glycoprotein BSA-(Mannose)3; test: Bacterial Binding Assay (BBA); assay type: cell-based, Escherichia coli; details: read-out: Bacterial Binding Assay IC50, LF82/Luciferase strain binding to BSA-(Man)3 coated plates, luminescence
Source text: The purpose of the Bacterial Binding Assay (BBA) is to determine the inhibition activity of
selective FimH antagonists on the bacterial strain LF82 binding to the glycoprotein BSA-(Mannose)3.
Below is a list of the Materials used to run the BBA are described below. • 1. LB broth: Supplier: Gibco, #10855 • 2. D-PBS: Supplier: Wisent, #311-425-CL • 3. LB agar plates • 4. 96-well black plate (high binding): Supplier: Costar, #3925 • 5. TopSeal™-A adhesive sealing films; Supplier PerkinElmer, #6005185 • 6. Carbonate-bicarbonate buffer pH 9.6 tablets, Supplier: Medicago, #09-8922-24 • 7. Water, Supplier: Gibco, #15230-162 • 8. Bovine serum albumin (BSA): Supplier: Sigma, #A-7888 • 9. (Man)3-BSA (α1-3, α1-6 Mannotriose-BSA, 1 mg), V-Labs, #NGP1336, lot #HGDX37-169-1 • 10. Tween 20: Supplier: Sigma, #P9416 • 11. Bright-Glo Luciferase Assay System: Supplier: Promega, #E2610 • 12. LF82/Luciferase strain: Invasive ability of an Escherichia coli strain isolated from the ileal mucosa of a patient with Crohn ? disease. Boudeau J, Glasser A L, Masseret E, Joly B, Darfeuille-Michaud A, Infect Immun. 1999, 67(9), 4499-509
Solutions and buffers used to run the BBA are described below. • 1. 0.04M carbonate-bicarbonate buffer (coating buffer) • 2. 40 μg/mL BSA-(Man)3: Dissolve 1 mg of (Man)3-BSA in 25 mL of water. • 3. 4000 μg/mL BSA • 4. 40 μg/mL BSA • 5. 1 μg/mL BSA-(Man)3: 150 μL of 40 μg/mL BSA-(Man)3+5.85 mL of 40 μg/mL BSA • 6. 0.5 μg/mL BSA-(Man)3 in 0.02M carbonate-bicarbonate buffer. • 7. 20 μg/mL BSA in 0.02M carbonate-bicarbonate buffer • 8. Blocking buffer (2% BSA/DPBS): 1 g of BSA in 50 mL D-PBS • 9. 2× binding buffer (0.2% BSA/D-PBS): 5 mL of blocking buffer+45 mL D-PBS. • 10. Washing buffer (D-PBS/0.01% Tween 20): 10 μL of Tween 20 in 100 mL D-PBS. • 11. 1× Bright-Glo Luciferase substrate: Dilute 1:1 the Bright-Glo Luciferase Assay System with D-PBS The experimental protocol to run the BBA is described below.
Overnight culture of LF82/Luciferase strain: Into two Falcon 50 mL tubes, add 20 mL of LB+20 μL of 50 mg/mL Kanamycin and inoculate with a loop from glycerol stock of the LF82/Luciferase strain. Incubate overnight at 37° C. with no shaking.
Glycoprotein coating of 96-well plates: Add 100 μL/well of 0.5-2 μg/mL BSA-(Man)3. 20 μg/mL BSA is used as the control background. Seal plate using an adhesive sealing film and incubate overnight at room temperature. Wash the 96-well plate three times with 150 μL/well of D-PBS, add 170 μL/well of blocking solution and incubate 45 min (minimum) at room temperature.
Preparation of bacterial suspension: Mix the two cultures tubes (40 mL) and perform a 1:10 dilution in LB (900 μl LB+100 μl culture. Measure optical density (OD) of the bacterial cultures. OD1 ˜5×10^8 cells/mL. Centrifuge LF82 culture for 20 min at 3500 rpm at room temperature. Re-suspend bacterial pellet in D-PBS and centrifuge again for 20 min at 3500 rpm. Re-suspend bacterial pellet in D-PBS to obtain a bacterial concentration of 2×10^9 bacteria/mL. Dilute 1/10 in D-PBS to obtain a final bacterial concentration of 2×10^8 bacteria/mL (=107 bacteria/50 μL). Perform 1/10 serial dilutions in LB of each bacterial suspension, plate 10 μL of dilutions on LB agar plates (final dilutions of 10^−7) and incubate overnight at 37° C. and count CFUs to determine the actual bacteria density in the assay.
Bacterial binding assay: Add 147 μL 2× binding buffer to compound plate (containing 3 μL of compound). After blocking step is performed (at least 45 min), wash plates three times with 200 μL/well of D-PBS. With a 100 μL multichannel manual pipettor, add 50 µL/well of compound diluted in 2× binding buffer. With a 100 μL multichannel manual pipettor, add 50 μL/well of bacterial suspension. Agitate at slow speed for 1 min and incubate 40-75 min at room temperature. Wash 5 times with 150 μL/well of washing buffer and then once with D-PBS. Add 100 μL/well of 1× Bright-Glo Luciferase substrate. […]

Point of comparison: `CC(C)(C)OC(=O)N1CCC(n2c3cc(C#C[C@H]4O[C@H](CO)[C@@H](O)[C@H](O)[C@@H]4O)ccc3c3ccc(C#C[C@H]4O[C@H](CO)[C@@H](O)[C@H](O)[C@@H]4O)cc32)CC1` [Compound 185, tert-butyl 4-[2,7-bis[2-[(2R,3S,4R,5S,6R)-3,4,5-trihydroxy-6-(hydroxymethyl)tetrahydropyran-2-yl]ethynyl]carbazol-9-yl]piperidine-1-carboxylate], IC50 1.1 nM. Against it:
- OC[C@H]1O[C@H](C#Cc2ccc(C#C[C@H]3O[C@H](CO)[C@@H](O)[C@H](O)[C@@H]3O)c(OCc3ccccc3)c2)[C@@H](O)[C@@H](O)[C@@H]1O [Compound 80, (2R,3S,4R,5S,6R)-2-[2-[3-benzyloxy-4-[2-[(2R,3S,4R,5S,6R)-3,4,5-trihydroxy-6-(hydroxymethyl)tetrahydropyran-2-yl]ethynyl]phenyl]ethynyl]-6-(hydroxymethyl)tetrahydropyran-3,4,5-triol] — 10-fold higher, 11 nM
- OC[C@H]1O[C@H](C#Cc2ccc3c4ccc(C#C[C@H]5O[C@H](CO)[C@@H](O)[C@H](O)[C@@H]5O)cc4n(CCN4CCOCC4)c3c2)[C@@H](O)[C@@H](O)[C@@H]1O [Compound 189, (2R,3S,4R,5S,6R)-2-(hydroxymethyl)-6-[2-[9-(2-morpholinoethyl)-7-[2-[(2R,3S,4R,5S,6R)-3,4,5-trihydroxy-6-(hydroxymethyl)tetrahydropyran-2-yl]ethynyl]carbazol-2-yl]ethynyl]tetrahydropyran-3,4,5-triol] — 7.1-fold higher, 7.8 nM
- CCCCCC1(O)c2cc(C#C[C@H]3O[C@H](CO)[C@@H](O)[C@H](O)[C@@H]3O)ccc2-c2ccc(C#C[C@H]3O[C@H](CO)[C@@H](O)[C@H](O)[C@@H]3O)cc21 [Compound 113, (2R,3S,4R,5S,6R)-2-(hydroxymethyl)-6-[2-[9-hydroxy-9-pentyl-7-[2-[(2R,3S,4R,5S,6R)-3,4,5-trihydroxy-6-(hydroxymethyl)tetrahydropyran-2-yl]ethynyl]fluoren-2-yl]ethynyl]tetrahydropyran-3,4,5-triol] — 5-fold higher, 5.5 nM
- CN1CCC(Cn2c3cc(C#C[C@H]4O[C@H](CO)[C@@H](O)[C@H](O)[C@@H]4O)ccc3c3ccc(C#C[C@H]4O[C@H](CO)[C@@H](O)[C@H](O)[C@@H]4O)cc32)CC1 [Compound 188, (2R,3S,4R,5S,6R)-2-(hydroxymethyl)-6-[2-[9-[(1-methyl-4-piperidyl)methyl]-7-[2-[(2R,3S,4R,5S,6R)-3,4,5-trihydroxy-6-(hydroxymethyl)tetrahydropyran-2-yl]ethynyl]carbazol-2-yl]ethynyl]tetrahydropyran-3,4,5-triol] — 3.9-fold higher, 4.3 nM
- OC[C@H]1O[C@H](C#Cc2ccc3c(c2)C2(CCOCC2)c2cc(C#C[C@H]4O[C@H](CO)[C@@H](O)[C@H](O)[C@@H]4O)ccc2-3)[C@@H](O)[C@@H](O)[C@@H]1O [Compound 162, (2R,2,3S,3,4R,4,5S,5,6R,6)-6,6((2tetrahydrospiro[fluorene-9,4pyran]-2,7-diyl)bis(ethyne-2,1-diyl))bis(2-(hydroxymethyl)tetrahydro-2H-pyran-3,4,5-triol)] — 10-fold lower, 0.11 nM
- Cc1cc(N2CC(=O)N(c3ccc([C@H]4O[C@H](CO)[C@@H](O)[C@H](O)[C@@H]4O)c(C)c3)CC2=O)ccc1[C@H]1O[C@H](CO)[C@@H](O)[C@H](O)[C@@H]1O [Compound 172, 1,4-bis[3-methyl-4-[(2R,3S,4R,5S,6R)-3,4,5-trihydroxy-6-(hydroxymethyl)tetrahydropyran-2-yl]phenyl]piperazine-2,5-dione] — 170-fold higher, 188 nM
- Cn1nccc1C(=O)c1c(C#C[C@H]2O[C@H](CO)[C@@H](O)[C@H](O)[C@@H]2O)ccc2c1C1(CCNCC1)c1cc(C#C[C@H]3O[C@H](CO)[C@@H](O)[C@H](O)[C@@H]3O)ccc1-2 [Compound 237, [2,7-bis[2-[(2R,3S,4R,5S,6R)-3,4,5-trihydroxy-6-(hydroxymethyl)tetrahydropyran-2-yl]ethynyl]spiro[fluorene-9,4piperidine]-1yl]-(2-methylpyrazol-3-yl)methanone] — 5-fold lower, 0.22 nM
- OC[C@H]1O[C@H](C#Cc2ccc3c(c2)C(O)(c2ccccc2)c2cc(C#C[C@H]4O[C@H](CO)[C@@H](O)[C@H](O)[C@@H]4O)ccc2-3)[C@@H](O)[C@@H](O)[C@@H]1O (stereo partly drawn) [Compound 167, (2R,3S,4R,5S,6R)-2-(hydroxymethyl)-6-[2-[9-hydroxy-9-phenyl-7-[2-[(2R,3S,4R,5S,6R)-3,4,5-trihydroxy-6-(hydroxymethyl)tetrahydropyran-2-yl]ethynyl]fluoren-2-yl]ethynyl]tetrahydropyran-3,4,5-triol] — 15-fold higher, 16 nM
- CC(C)(C#N)c1cc(C#C[C@H]2O[C@H](CO)[C@@H](O)[C@H](O)[C@@H]2O)ccc1C#C[C@H]1O[C@H](CO)[C@@H](O)[C@H](O)[C@@H]1O [Compound 70] — 14-fold higher, 15 nM
- OC[C@H]1O[C@H](c2ccc(-c3ccc(-c4ccc([C@H]5O[C@H](CO)[C@@H](O)[C@H](O)[C@@H]5O)cc4)cc3)cc2)[C@@H](O)[C@@H](O)[C@@H]1O [Compound 65] — 50-fold higher, 55 nM
- OC[C@H]1O[C@H](C#Cc2ccc(C#C[C@H]3O[C@H](CO)[C@@H](O)[C@H](O)[C@@H]3O)c3ccccc23)[C@@H](O)[C@@H](O)[C@@H]1O [Compound 136, (2R,3S,4R,5S,6R)-2-(hydroxymethyl)-6-[2-[4-[2-[(2R,3S,4R,5S,6R)-3,4,5-trihydroxy-6-(hydroxymethyl)tetrahydropyran-2-yl]ethynyl]-1-naphthyl]ethynyl]tetrahydropyran-3,4,5-triol] — 130-fold higher, 145 nM
- Cc1cc(-c2ccc([C@H]3O[C@H](CO)[C@@H](O)[C@H](O)[C@@H]3O)cc2F)ccc1[C@H]1O[C@H](CO)[C@@H](O)[C@H](O)[C@@H]1O [Compound 150, (2R,2,3S,3,4R,4,5S,5,6R,6)-6,6(2-fluoro-3methyl-[1,1biphenyl]-4,4diyl)bis(2-(hydroxymethyl)tetrahydro-2H-pyran-3,4,5-triol)] — 65-fold higher, 71 nM
- OC[C@H]1O[C@H](C#Cc2ccc3c(c2)C2(CCCCO2)c2cc(C#C[C@H]4O[C@H](CO)[C@@H](O)[C@H](O)[C@@H]4O)ccc2-3)[C@@H](O)[C@@H](O)[C@@H]1O (stereo partly shown) [Compound 199] — 5.2-fold lower, 0.21 nM
- Cc1cc(C#C[C@H]2O[C@H](CO)[C@@H](O)[C@H](O)[C@@H]2O)cc(C)c1C#C[C@H]1O[C@H](CO)[C@@H](O)[C@H](O)[C@@H]1O [Compound 100, (2R,3S,4R,5S,6R)-2-[2-[3,5-dimethyl-4-[2-[(2R,3S,4R,5S,6R)-3,4,5-trihydroxy-6-(hydroxymethyl)tetrahydropyran-2-yl]ethynyl]phenyl]ethynyl]-6-(hydroxymethyl)tetrahydropyran-3,4,5-triol] — 25-fold higher, 28 nM
- O=C(CCn1cccn1)c1c(C#C[C@H]2O[C@H](CO)[C@@H](O)[C@H](O)[C@@H]2O)ccc2c1C1(CCNCC1)c1cc(C#C[C@H]3O[C@H](CO)[C@@H](O)[C@H](O)[C@@H]3O)ccc1-2 [Compound 240, 1-[2,7-bis[2-[(2R,3S,4R,5S,6R)-3,4,5-trihydroxy-6-(hydroxymethyl)tetrahydropyran-2-yl]ethynyl]spiro[fluorene-9,4piperidine]-1yl]-3-pyrazol-1-yl-propan-1-one] — 22-fold lower, 0.05 nM
